The text below walks through data of article PMC4307180, “Overcoming myelosuppression due to synthetic lethal toxicity for FLT3-targeted acute myeloid leukemia therapy” (eLife, 2014).

One experiment concerns HMC1.1 cells (KIT V560G). The note with it: proliferation, Figure 2A and reference values; ref de Jong and Zon, 2005; Guo et al., 2007; Kampa-Shittenhelm et al., 2013; cited from earlier work.
For the next experiment, the target named is T1, purified FLT3 WT (Homo sapiens, UniProt P36888).
T1 sequence (P36888 27-993): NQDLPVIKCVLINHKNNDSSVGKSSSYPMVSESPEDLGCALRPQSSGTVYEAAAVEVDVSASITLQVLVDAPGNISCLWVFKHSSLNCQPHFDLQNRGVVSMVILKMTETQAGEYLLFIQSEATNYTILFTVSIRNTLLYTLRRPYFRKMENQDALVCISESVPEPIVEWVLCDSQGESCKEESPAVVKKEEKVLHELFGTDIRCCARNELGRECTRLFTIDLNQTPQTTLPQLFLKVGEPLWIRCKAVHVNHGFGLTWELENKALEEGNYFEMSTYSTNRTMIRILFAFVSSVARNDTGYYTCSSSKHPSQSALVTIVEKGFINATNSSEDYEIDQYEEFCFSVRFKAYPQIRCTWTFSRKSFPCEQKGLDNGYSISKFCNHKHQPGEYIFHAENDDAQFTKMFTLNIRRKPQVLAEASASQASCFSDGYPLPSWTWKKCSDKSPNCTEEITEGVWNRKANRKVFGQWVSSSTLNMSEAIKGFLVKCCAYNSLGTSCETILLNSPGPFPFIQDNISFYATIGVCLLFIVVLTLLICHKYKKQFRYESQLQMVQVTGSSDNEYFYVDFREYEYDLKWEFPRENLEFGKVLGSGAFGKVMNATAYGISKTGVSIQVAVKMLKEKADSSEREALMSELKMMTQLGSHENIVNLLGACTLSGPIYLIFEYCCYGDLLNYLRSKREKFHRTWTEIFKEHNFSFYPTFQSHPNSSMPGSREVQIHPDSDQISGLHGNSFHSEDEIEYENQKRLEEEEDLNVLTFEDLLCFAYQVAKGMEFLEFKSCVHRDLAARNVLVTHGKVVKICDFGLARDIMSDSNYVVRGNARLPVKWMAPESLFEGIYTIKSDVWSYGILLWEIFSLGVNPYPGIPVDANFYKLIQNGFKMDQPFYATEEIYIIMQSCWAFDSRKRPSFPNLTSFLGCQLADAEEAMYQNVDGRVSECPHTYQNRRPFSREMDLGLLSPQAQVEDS
In words: Radiolabeled purified kinase assay (Figure 1B).

Another experiment has as its target CSF1R (Homo sapiens, UniProt P07333). Briefly: Reaction Biology Corp kinase assay at Km-ATP (Figure 1C), CSF1R.
Another experiment has as its target KIT (Homo sapiens, UniProt P10721). Briefly: Reaction Biology Corp kinase assay at Km-ATP (Figure 1C), KIT.
The next experiment has as its target T2, FLT3 (Homo sapiens, UniProt P36888).
T2 sequence (P36888 27-993): T1 sequence (P36888 27-993)
In words: Reaction Biology Corp kinase assay at Km-ATP (Figure 1C), FLT3.

The next experiment has as its target PDGFRα (Homo sapiens, UniProt P16234). Briefly: Reaction Biology Corp kinase assay at Km-ATP (Figure 1C), PDGFRα.
A further experiment addresses PDGFRβ (Homo sapiens, UniProt P09619). In words: Reaction Biology Corp kinase assay at Km-ATP (Figure 1C), PDGFRβ.

KIT, sequence (P10721 26-976): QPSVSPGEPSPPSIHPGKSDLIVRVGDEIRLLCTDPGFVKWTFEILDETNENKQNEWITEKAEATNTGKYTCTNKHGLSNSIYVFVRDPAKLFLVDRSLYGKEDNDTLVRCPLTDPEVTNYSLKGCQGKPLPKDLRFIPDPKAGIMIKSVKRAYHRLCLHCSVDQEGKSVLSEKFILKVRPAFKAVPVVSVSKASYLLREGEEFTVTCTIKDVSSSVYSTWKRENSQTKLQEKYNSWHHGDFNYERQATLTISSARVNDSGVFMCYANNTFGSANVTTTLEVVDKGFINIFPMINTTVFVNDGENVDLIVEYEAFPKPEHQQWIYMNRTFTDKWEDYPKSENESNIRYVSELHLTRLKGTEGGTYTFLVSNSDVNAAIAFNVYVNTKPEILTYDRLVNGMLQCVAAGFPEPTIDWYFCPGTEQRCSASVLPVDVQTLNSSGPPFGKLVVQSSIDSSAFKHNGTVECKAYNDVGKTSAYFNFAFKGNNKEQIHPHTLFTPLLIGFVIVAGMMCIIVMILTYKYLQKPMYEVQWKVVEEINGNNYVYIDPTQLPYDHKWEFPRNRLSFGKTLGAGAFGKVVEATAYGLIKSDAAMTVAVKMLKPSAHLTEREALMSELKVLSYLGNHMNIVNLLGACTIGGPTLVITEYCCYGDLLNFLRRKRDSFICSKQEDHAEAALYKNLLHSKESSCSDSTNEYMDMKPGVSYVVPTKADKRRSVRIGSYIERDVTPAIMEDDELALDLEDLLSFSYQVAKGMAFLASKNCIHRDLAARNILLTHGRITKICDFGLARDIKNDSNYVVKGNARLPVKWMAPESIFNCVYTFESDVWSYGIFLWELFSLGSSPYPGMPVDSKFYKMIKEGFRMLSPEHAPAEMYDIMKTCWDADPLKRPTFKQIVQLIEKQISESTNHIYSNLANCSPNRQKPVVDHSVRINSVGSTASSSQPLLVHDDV
CSF1R, sequence (P07333 20-972): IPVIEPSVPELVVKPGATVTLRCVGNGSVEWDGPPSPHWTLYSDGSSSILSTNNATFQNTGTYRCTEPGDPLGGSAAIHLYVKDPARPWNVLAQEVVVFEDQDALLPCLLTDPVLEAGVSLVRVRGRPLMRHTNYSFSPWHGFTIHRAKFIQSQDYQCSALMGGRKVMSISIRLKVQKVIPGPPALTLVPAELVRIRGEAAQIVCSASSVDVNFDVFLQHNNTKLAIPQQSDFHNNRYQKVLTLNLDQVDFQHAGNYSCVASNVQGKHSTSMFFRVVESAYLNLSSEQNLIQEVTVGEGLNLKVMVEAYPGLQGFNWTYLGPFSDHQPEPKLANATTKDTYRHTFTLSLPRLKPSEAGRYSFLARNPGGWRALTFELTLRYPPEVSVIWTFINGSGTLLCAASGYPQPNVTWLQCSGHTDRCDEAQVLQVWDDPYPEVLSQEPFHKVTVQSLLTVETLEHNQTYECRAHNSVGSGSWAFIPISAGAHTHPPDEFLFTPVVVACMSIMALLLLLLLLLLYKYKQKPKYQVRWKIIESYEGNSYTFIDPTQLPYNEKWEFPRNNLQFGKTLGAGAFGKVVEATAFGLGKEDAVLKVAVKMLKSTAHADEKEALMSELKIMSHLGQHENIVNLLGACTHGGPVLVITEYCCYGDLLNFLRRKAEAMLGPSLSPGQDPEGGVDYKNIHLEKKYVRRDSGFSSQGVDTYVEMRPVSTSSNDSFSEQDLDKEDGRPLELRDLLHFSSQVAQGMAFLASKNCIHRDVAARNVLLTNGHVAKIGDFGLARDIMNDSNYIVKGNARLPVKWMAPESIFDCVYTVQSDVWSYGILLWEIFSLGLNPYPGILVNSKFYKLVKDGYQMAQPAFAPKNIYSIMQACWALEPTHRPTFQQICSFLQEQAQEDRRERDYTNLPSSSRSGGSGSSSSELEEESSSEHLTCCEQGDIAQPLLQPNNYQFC
PDGFRα, sequence (P16234 24-1089): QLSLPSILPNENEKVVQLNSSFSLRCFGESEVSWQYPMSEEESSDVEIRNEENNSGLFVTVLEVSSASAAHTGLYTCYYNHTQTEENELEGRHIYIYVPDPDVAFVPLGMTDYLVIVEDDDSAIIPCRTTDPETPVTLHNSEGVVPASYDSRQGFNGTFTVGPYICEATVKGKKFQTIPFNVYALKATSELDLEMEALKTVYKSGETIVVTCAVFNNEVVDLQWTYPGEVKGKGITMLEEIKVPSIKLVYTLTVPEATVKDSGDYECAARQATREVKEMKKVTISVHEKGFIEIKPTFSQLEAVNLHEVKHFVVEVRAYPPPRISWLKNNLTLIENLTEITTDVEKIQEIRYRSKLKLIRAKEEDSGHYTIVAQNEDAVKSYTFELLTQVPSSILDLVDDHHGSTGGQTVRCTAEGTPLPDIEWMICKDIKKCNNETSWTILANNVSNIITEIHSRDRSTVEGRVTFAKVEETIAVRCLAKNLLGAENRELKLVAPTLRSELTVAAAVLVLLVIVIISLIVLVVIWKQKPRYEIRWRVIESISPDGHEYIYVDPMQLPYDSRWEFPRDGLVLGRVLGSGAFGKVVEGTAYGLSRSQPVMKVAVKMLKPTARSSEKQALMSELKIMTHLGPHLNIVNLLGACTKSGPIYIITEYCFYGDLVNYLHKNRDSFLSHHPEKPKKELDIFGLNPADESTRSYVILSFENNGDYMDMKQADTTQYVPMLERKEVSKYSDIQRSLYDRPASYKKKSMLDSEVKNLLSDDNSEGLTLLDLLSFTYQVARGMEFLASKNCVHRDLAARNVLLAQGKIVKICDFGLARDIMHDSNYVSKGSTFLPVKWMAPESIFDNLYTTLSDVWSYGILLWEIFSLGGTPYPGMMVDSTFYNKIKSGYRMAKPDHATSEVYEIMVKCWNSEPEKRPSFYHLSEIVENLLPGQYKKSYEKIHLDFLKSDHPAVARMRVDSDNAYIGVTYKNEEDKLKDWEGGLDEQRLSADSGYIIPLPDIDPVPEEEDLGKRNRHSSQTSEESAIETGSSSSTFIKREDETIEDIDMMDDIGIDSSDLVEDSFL
PDGFRβ, sequence (P09619 33-1106): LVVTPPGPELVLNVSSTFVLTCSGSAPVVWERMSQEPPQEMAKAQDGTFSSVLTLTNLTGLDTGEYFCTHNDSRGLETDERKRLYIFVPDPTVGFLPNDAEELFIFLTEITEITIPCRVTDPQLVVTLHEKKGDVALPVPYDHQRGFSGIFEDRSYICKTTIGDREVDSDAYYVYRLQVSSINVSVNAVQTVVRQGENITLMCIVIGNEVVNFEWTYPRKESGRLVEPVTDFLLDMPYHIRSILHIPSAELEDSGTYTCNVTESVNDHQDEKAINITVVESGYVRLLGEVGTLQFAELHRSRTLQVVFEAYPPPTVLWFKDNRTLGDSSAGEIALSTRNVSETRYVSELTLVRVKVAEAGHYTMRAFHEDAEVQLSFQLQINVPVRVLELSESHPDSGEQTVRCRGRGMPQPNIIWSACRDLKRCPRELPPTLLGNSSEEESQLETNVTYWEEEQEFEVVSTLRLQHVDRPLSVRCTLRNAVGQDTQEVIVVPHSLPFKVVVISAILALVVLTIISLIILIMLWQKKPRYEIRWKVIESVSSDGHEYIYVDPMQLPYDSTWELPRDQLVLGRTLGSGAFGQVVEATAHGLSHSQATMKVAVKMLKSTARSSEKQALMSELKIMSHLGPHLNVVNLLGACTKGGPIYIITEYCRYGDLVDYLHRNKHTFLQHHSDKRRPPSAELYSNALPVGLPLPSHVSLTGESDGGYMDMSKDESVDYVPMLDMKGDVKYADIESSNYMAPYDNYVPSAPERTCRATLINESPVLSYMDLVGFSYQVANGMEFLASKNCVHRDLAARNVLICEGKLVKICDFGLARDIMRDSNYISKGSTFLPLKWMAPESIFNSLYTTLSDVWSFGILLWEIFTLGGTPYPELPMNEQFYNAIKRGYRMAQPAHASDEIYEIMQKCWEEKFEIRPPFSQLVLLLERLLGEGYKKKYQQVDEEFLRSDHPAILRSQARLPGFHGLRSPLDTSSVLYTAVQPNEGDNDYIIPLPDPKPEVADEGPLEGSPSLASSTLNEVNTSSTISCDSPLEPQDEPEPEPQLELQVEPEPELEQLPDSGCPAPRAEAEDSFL

Take `Cc1ccc(C(=O)Nc2ccc(CN3CCN(C)CC3)c(C(F)(F)F)c2)cc1C#Cc1cnc2cccnn12` [Ponatinib]: the “inhibition of FLT3- versus KIT-driven cell lines” value in the experiment on HMC1.1 cells (KIT V560G) is “equipotent inhibition of FLT3 and KIT-driven cell lines”.

On to `CNC(=O)c1cc(Oc2ccc(NC(=O)Nc3ccc(Cl)c(C(F)(F)F)c3)cc2)ccn1` [Sorafenib], for which, in the experiment with HMC1.1 cells (KIT V560G), the “inhibition of FLT3- versus KIT-driven cell lines” value was “equipotent inhibition of FLT3 and KIT-driven cell lines”.

On to `CC(C)C[C@@H]1NC(=O)c2c1c1c3ccccc3[nH]c1c1[nH]c3ccccc3c21` [Star 1], for which the IC50 against purified FLT3 WT is over 10 µM.

`CCC[C@@H]1NC(=O)c2c1c1c3ccccc3[nH]c1c1[nH]c3ccccc3c21` [Star 3] registered an IC50 against purified FLT3 WT of over 10 µM.

Molecule `CCCC[C@@H]1NC(=O)c2c1c1c3ccccc3[nH]c1c1[nH]c3ccccc3c21` [Star 4] had a 50% inhibitory concentration (IC50) against purified FLT3 WT of over 10 µM.

On purified FLT3 WT, `CC(C)[C@@H]1NC(=O)c2c1c1c3ccccc3[nH]c1c1[nH]c3ccccc3c21` [Star 6] returned an IC50 of 2 µM. That is a single-digit micromolar value.

For `CC(C)(C)[C@@H]1NC(=O)c2c1c1c3ccccc3[nH]c1c1[nH]c3ccccc3c21` [Star 7], the IC50 on purified FLT3 WT was over 10 µM.

In turn, `CC[C@@H]1NC(=O)c2c1c1c3ccccc3[nH]c1c1[nH]c3ccccc3c21` [Star 8] showed a half-inhibitory concentration (IC50) against purified FLT3 WT of 2 µM.

With `C#CC[C@@H]1NC(=O)c2c1c1c3ccccc3[nH]c1c1[nH]c3ccccc3c21` [Star 9], on purified FLT3 WT, the concentration for half-maximal inhibition (IC50) was over 10 µM.

`C[C@@H]1NC(=O)c2c1c1c3ccccc3[nH]c1c1[nH]c3ccccc3c21` [Star 22] gave a half-inhibitory concentration (IC50) on purified FLT3 WT of 0.193 ± 0.028 µM.

On to `C[C@@H]1NC(=O)c2c1c1c3ccccc3n(CCCCN)c1c1[nH]c3ccccc3c21` [Star 23], for which the IC50 at purified FLT3 WT was 0.01 ± 0.004 µM; against CSF1R it was over 10 µM; at KIT, 6.55 µM; against FLT3, 0.009 ± 0.001 µM; on PDGFRα, 2 µM; on PDGFRβ, 2.8 µM. Further, the “KIT/FLT3 IC50 ratio” value at KIT (ratio of Figure 1C IC50s) amounted to 728.

`C[C@@H]1NC(=O)c2c1c1c3ccccc3[nH]c1c1c2c2ccccc2n1CCCN` [Star 27-iso] showed a half-maximal inhibitory concentration (IC50) against purified FLT3 WT of 0.015 ± 0.007 µM.
